In paper PMC5947877 (Phytomedicine : international journal of phytotherapy and …, 2017):
“Also recorded” adds a separate entry of the source.

Legend:
recombinant human MAO-B = biological target: T1, recombinant human MAO-B (Homo sapiens, UniProt P27338); test: Fluorometric kynuramine deamination assay, MAO-B inhibition; type: biochemical
T1 sequence (P27338 1-520): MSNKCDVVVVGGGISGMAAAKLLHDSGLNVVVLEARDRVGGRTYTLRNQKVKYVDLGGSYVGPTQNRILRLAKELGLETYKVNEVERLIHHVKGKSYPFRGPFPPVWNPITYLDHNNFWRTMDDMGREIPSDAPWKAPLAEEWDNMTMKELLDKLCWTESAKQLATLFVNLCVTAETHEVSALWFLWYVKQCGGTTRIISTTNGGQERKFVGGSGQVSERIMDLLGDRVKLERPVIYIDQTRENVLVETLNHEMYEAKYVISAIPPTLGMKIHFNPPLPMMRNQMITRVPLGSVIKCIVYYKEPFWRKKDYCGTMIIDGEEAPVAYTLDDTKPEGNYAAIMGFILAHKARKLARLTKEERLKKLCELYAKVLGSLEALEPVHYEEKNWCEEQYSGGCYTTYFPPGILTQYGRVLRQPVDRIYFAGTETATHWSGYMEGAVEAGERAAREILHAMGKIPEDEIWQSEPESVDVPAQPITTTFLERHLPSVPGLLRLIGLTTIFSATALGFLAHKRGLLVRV

recombinant human MAO-A [1] = biological target: T2, recombinant human MAO-A (Homo sapiens, UniProt P21397); test: Enzyme kinetics and mechanism of inhibition with MAO-A; type: biochemical; settings: for Type of Inhibition, Monoamine oxidase-A: Lineweaver-Burk analysis, reversibility from dialysis
T2 sequence (P21397 1-527): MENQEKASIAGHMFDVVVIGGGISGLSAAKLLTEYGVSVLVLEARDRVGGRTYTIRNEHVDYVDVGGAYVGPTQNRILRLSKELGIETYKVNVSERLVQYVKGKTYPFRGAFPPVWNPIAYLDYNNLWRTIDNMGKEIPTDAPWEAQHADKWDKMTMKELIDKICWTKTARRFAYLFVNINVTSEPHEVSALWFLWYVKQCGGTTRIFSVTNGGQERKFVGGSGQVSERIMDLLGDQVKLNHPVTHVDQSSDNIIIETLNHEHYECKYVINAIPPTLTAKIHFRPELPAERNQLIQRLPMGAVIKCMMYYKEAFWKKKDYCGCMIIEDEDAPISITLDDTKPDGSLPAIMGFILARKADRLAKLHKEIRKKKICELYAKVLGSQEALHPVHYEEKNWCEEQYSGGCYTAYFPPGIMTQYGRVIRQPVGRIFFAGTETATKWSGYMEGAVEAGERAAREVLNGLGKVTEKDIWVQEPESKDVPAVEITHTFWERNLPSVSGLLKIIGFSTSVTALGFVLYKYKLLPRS

recombinant human MAO-A [2] = biological target: T2, recombinant human MAO-A; settings: dialysis 14-16 h at 4 °C
recombinant human MAO-A [3] = biological target: T2, recombinant human MAO-A; test: Fluorometric kynuramine deamination assay, MAO-A inhibition; type: biochemical; settings: ratio of IC50 MAO-B / MAO-A

SMILES	IC50 (recombinant human MAO-B) [µM]	Ki (recombinant human MAO-A [1]) [µM]	Type of Inhibition, Monoamine oxidase-A (recombinant human MAO-A [1])	Type of Inhibition, Monoamine oxidase-A (recombinant human MAO-A [1]; listed as myricetin)	nature of binding to MAO-A (recovery of activity after dialysis) (recombinant human MAO-A [2])	preferential MAO-A inhibition over MAO-B (fold) (recombinant human MAO-A [3])	Type of Inhibition, Monoamine oxidase-A (recombinant human MAO-A [1]; listed as quercetin)
O=c1c(O)c(-c2cc(O)c(O)c(O)c2)oc2cc(O)cc(O)c12 [Myricetin, myricetin]	59.3 ± 1.78	2.24 ± 0.25	Mixed/Reversible	mixed-type	reversible binding; also recorded: reversible inhibition	–	–
O=c1c(O)c(-c2ccc(O)c(O)c2)oc2cc(O)cc(O)c12 [Quercetin, quercetin]	28.4 ± 5.41	0.29 ± 0.03	Competitive/Reversible	–	reversible binding; also recorded: reversible inhibition	18	competitive
